# Entries after “also recorded” stand apart in the source; their conditions may differ.
# Tests used:
# TLR3 = target: T1, TLR3 (Mus musculus, UniProt Q99MB1); experiment: Cytokine production by sorted Flt3L-DC cDC1 activated with poly I:C LMW; assay type: cell-based; conditions: sorted cDC1, 10 μg/mL poly I:C LMW 6 h, GBZ 50 μM
# T1 construct: endogenous in cells; host or cells: sorted cDC1 from Flt3L-differentiated mouse bone marrow cultures
# T1 sequence (Q99MB1 26-905): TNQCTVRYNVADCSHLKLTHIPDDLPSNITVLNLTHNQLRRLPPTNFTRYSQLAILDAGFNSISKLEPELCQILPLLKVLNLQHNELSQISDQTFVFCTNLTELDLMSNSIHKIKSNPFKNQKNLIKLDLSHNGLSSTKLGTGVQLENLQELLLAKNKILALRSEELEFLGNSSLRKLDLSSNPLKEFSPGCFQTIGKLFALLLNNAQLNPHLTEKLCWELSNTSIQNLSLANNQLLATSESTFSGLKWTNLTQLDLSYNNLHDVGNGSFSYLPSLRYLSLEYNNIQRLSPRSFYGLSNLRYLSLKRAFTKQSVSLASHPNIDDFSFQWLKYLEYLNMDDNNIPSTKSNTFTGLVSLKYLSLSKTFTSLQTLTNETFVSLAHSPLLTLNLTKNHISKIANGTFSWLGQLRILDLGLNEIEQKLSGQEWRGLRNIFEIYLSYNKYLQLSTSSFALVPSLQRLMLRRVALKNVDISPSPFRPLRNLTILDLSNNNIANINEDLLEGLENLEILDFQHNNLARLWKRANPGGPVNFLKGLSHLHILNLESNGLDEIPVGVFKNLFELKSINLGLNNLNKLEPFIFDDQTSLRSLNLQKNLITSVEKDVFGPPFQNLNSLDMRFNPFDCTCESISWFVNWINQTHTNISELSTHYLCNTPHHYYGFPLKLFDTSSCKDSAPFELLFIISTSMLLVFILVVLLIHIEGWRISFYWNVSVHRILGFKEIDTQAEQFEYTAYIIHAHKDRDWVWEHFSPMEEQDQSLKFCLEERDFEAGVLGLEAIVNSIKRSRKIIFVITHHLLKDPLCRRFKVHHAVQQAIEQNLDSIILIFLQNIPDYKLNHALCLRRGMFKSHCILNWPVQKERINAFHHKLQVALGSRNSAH
# Experimental: FIG. 1: Guanabenz inhibits TLR3 and TLR9 activation in mouse Flt3-L DCs and human blood pDCs. A) Sorted bone marrow derived Flt3L-DCs were activated for 6 h with 10 μg/mL poly I:C LMW (TLR3 in DC1) or 1 μM ODN 1585 (TLR9 in pDCs). GBZ was added at 50 μM and inhibited IFN-β and Interleukin-6 (IL-6) production in activated cells. B) hTLR4, hTLR3, hTLR9 and hTLR7 expressed in the reporter HEK-Blue™ cells are inhibited by GBZ. TLR-expressing HEK-Blue™ cells were respectively activated with 100 ng/mL LPS, 10 μg/mL poly I:C LMW, 2.5 μM ODN 2006 or 5 μg/mL imiquimod, respectively. GBZ was added at 50 μM. TLR activity was measured indirectly through SEAP activity as absorbance at 405 nm. […] Protein concentration of IFN-α and TNF-α secreted were measured at the indicated time points or at 16 h. […]
# BM-derived DCs were differentiated in vitro from the bone marrow of 6-8 weeks old male mice, using either FLT3 ligand or GM-CSF. […] For sorted Flt3L-DCs, cells were gently harvested at day 7 with cold PBS 2% FCS, centrifuged 1200 rpm 5 min at 4° C., counted and stained with for 30 mins at 4° C. […]
# Mouse IFN-β quantification in culture supernatant was performed using the Mouse Interferon Beta ELISA kit (PBL InterferonSource); mouse IL-6, TNFα, IL-10, human TNFα and human IFNα were quantified using ELISA kit (eBioscience) respectively, according to manufacturer instructions. […]
# [1] = test system: TLR9 signal transduction pathway; experiment: Phospho-flow detection of rpS6 phosphorylation after CpG exposure; assay type: cell-based; conditions: CAL-1 and human B cells, 15 min to 1 h of CpG exposure, data not shown
# [2] = test system: RIG-I like receptor (RLR) dsRNA sensing pathway; experiment: IRF3 activation and IFN-β expression in MEFs lipofected with poly(I:C); assay type: cell-based, mouse; conditions: WT and Gadd34-deficient
# Experimental: FIG. 2: Interferon β (IFNb) production in response to cytosolic dsRNA (Poly I:C) in WT and Gadd34-deficient embryonic fibroblasts (MEFs) treated with Guanabenz.
# (A) IFNb expression in response to lipofected dsRNA (poly I:C) was measured by qPCR (mRNA) or (B) by ELISA (secreted protein) after treatment with Guanabenz (GBZ). (C) Activation of the transcription IRF3 by phosphorylation that drives IFN-β mRNA expression was monitored by western blot in WT and Gadd34-deficient animals (ΔC/ΔC, KO or −/−) in response to lipofected poly I:C in presence of GBZ. (D) eIF2α A/A mutants MEFs (unable to phosphorylate eIF2α on Serine 52, that is targeted by GADD34 and to inhibit protein synthesis) were also tested for IFN-β production and IRF3 activation.
smiles,measurement,setting,value
"NC(N)=N/N=C/c1c(Cl)cccc1Cl [GBZ, 2-(2,6-dichlorobenzylidene)-hydrazinecarboximidamide]",IFN-β production,TLR3,nearly abrogated; also recorded: inhibited
same,IL-6 production,TLR3,nearly abrogated; also recorded: inhibited
same,rpS6 phosphorylation,[1],strong reduction
same,"IFN-β expression (mRNA by qPCR, secreted protein by ELISA)",[2],inhibited
same,"activation of IRF3 (phosphorylation, western blot)",[2],inhibited
same,"IFN-β expression (mRNA by qPCR, secreted protein by ELISA)",[2]; listed as Guanabenz,inhibit
same,"activation of IRF3 (phosphorylation, western blot)",[2]; listed as Guanabenz,inhibit

# Source: patent US20210177814A1, “USE OF GUANABENZ OR DERIVATES THEREOF FOR THE TREATMENT OF TYPE I IFN-DEPENDENT PATHOLOGIES” (INSERM (Institut National de la Santé et de la Recherche …, priority 2018, published 2021)
